Assay results: patent US10292976B2, “Anti-malarial agent” (RIKEN, priority 2014, dated 2019)
Where two headings read alike, the source gives them in different places.

Key:
[1] = test system: human cells (HEK293T and HeLa); assay: Cytotoxicity by WST-8 assay, summary for human cells; format: cell-based; conditions: 48 hours, read-out: concentration at which toxicity is exerted (IC50 value)
Method: (§1) After treating various kinds of cells (HEK293T: human embryonic kidney cells; HeLa: human cervical cancer cells; NIH3T3: mouse fibroblast cells; tsNRK: rat kidney cells; and 3Y1: rat fibroblasts) with a metal chelator for 48 hours, the cytotoxicities of the cells were evaluated by WST-8 assay.

[2] = test system: mouse malaria parasites (Plasmodium berghei ANKA strain); assay: Life-prolonging effect in malaria-infected mice, oral administration; format: in vivo; conditions: oral 200 mg/kg on Day 1, Day 3, and Day 6
Method: (§2) To mice (7 weeks old, Balb/c, male), erythrocytes infected with mouse malaria parasites (Plasmodium berghei ANKA strain) (total number of erythrocytes per mouse, about 10^7; rate of malaria-infected erythrocytes, 0.3%) were intraperitoneally injected. L6 was administered (20 mg/kg, intraperitoneal injection) to each of the thus obtained malaria-infected mice, and the rate of malaria-infected erythrocytes was measured. As a result, on Day 2 to Day 6 after the infection, the infection rate tended to increase in the negative control to which only DMSO was administered. […] The effect of L6 to reduce the infection rate was almost equivalent to the effect of an existing drug, chloroquine (CQ).
To malaria-infected mice obtained by the same procedure as in Experiment 4, an aqueous solution of L6 or the zinc complex Zn-L6 was orally administered (at a dose of 200 mg/kg on Day 1, Day 3, and Day 6; N=6), and changes in the number of surviving individuals were investigated. […] That is, it is thought that, by formation of metal complex with zinc ion, L6 can remarkably suppress the toxicity in vivo while sufficiently maintaining the antimalarial activity.

[3] = Cytotoxicity by WST-8 assay, HEK293T; format: cell-based; conditions: human, HEK293T cells
Method: as §1

[4] = Cytotoxicity by WST-8 assay, NIH3T3; format: cell-based; conditions: mouse, NIH3T3 cells, NIH3T3, 48 hours
Method: as §1

[5] = test system: Plasmodium falciparum: 3D7 strain; assay: Antimalarial activity by LDH assay, 3D7 strain; format: cell-based; conditions: for IC50: Plasmodium falciparum
Method: Compounds that chelate metal ions in various modes (L1 to L25 in FIG. 1) were selected, and their antimalarial activities were evaluated by LDH assay. Since infection with malaria causes an increase in the LDH activity, the evaluation can be made based on the criteria that the lower the detected LDH activity, the higher the antimalarial activity.
(§3) The LDH assay was carried out according to the following procedure. That is, 0.5 μL of a solution of each compound in DMSO was added to 100 μL of a culture liquid of erythrocytes (88% RPMI solution; 2% erythrocytes, provided by the Japanese Red Cross Society; and 10% human serum, provided by the Japanese Red Cross Society) infected with falciparum malaria parasites (Plasmodium falciparum: 3D7 strain) (infection rate of erythrocytes, 0.3%). The resulting culture liquid was subjected to culture in a 96-well plate under an atmosphere of 5% CO2, 5% O2, and 90% N2 at 37° C. for three days. Subsequently, the culture liquid was cooled at −80° C. for three hours, and then returned to room temperature. After addition of 150 μL of an LDH enzyme reaction liquid (0.15 mg/mL diaphorase, 37.5 μL/mL of 50% sodium lactate, 0.17 mg/mL NBT, 0.11 mg/mL APAD, 0.16 mL/mL of 1 M Tris-HCl (pH 8), and 8.3 μL/mL of Tween 20), the absorbance at 620 nm was measured.
By the same procedure as in Experiment 1, erythrocytes infected with malaria were treated with L6 (about 40 nM) together with iron ion (about 50 μM), copper ion (about 1 μM), or zinc ion (about 10 μM), and the antimalarial activity was evaluated by LDH assay.
(§4) According to the same procedure as in Experiment 1, the antimalarial activities of metal complexes (M-L6) synthesized by mixing various kinds of metal ions (MSO4: M=Zn, Fe, Cu, Co, Ni, or Mn) with L6 at a molar ratio of 1:1 were evaluated by LDH assay.

[6] = test system: Dd2 strain (drug-resistant malaria parasites); assay: Antimalarial activity by LDH assay, Dd2 strain; format: cell-based, Plasmodium falciparum; conditions: Plasmodium falciparum
[7] = test system: mouse malaria parasites (Plasmodium berghei ANKA strain); assay: Life-prolonging effect after infection with malaria, intraperitoneal; format: in vivo; conditions: malaria-infected mice, 20 mg/kg intraperitoneal injection
[8] = test system: chloroquine-resistant strain; assay: Antimalarial activity against a chloroquine-resistant strain; format: cell-based; conditions: result in words
[9] = Cytotoxicity by WST-8 assay, C3H10T1/2; format: cell-based, murine; conditions: mouse, C3H10T1/2 cells, Table 3, 48 hours
Method: (§5) Subsequently, the following cell types: HL60 (human promyelocytic leukemia cells), HeLa (human cervical cancer cells), C3H10T1/2 (murine multipotential mesenchymal cells), and HEK293 (human embryonic kidney 293 cells); were treated with metal complexes M-L6 (M=Zn, Fe, Cu, Co, Ni, and Mn) for 48 hours, and then subjected to WST-8 assay to perform evaluation of the cytotoxicity of each kind of metal complex.

[10] = Cytotoxicity by WST-8 assay, HeLa; format: cell-based, human; conditions: human, HeLa cells
Method: as §1, §5

[11] = Cytotoxicity by WST-8 assay, HL60; format: cell-based, human; conditions: human, HL60 cells, Table 3, 48 hours
Method: as §5

[12] = Cytotoxicity by WST-8 assay, tsNRK; format: cell-based; conditions: rat, tsNRK cells
Method: as §1

[13] = test system: drug-resistant malaria parasite K1 strain; assay: Antimalarial activity by LDH assay, K1 strain; format: cell-based, Plasmodium falciparum; conditions: Plasmodium falciparum
Method: as §3, §4
According to the same procedure as in Experiment 1, the antimalarial activities of L18 and di-2-pyridylketone 4,4-dimethyl-3-thiosemicarbazone (Sigma) against the malaria parasite 3D7 strain and the drug-resistant malaria parasite K1 strain were evaluated by LDH assay.
According to the same procedure as in Experiment 1, the antimalarial activities of 4′-(4-Pyridyl)-2,2′:6′,2″-terpyridine (Tokyo Chemical Industry) against the malaria parasite 3D7 strain and the drug-resistant malaria parasite K1 strain were evaluated by LDH assay.

[14] = Cytotoxicity by WST-8 assay, 3Y1; format: cell-based; conditions: rat, 3Y1 cells, 3Y1, 48 hours
Method: as §1

[15] = test system: mouse malaria parasites (Plasmodium berghei ANKA strain); assay: Effect to suppress malaria infection in malaria-infected mice; format: in vivo; conditions: Balb/c mice, 20 mg/kg intraperitoneal injection, Day 2 to Day 6 after infection
Method: as §2

[16] = Cytotoxicity by WST-8 assay, HEK293; format: cell-based, human; conditions: human, HEK293 cells, Table 3, 48 hours
Method: as §5

c1ccc(CN(Cc2ccccn2)Cc2ccccn2)nc1 [L6, Tris(2-pyridylmethyl)amine]
IC50 [1]: 5080 to 5610 nM
toxicity in vivo [2]: influence of toxicity appears
IC50 at 48 h ([3]; 1st measurement): 5080 nM
IC50 at 48 h ([3]; 2nd measurement): 5310 nM
IC50 at 48 h ([4]; 1st measurement): 1800 nM
IC50 at 48 h ([4]; 2nd measurement): 1950 nM
antimalarial activity (LDH assay, FIG. 2) ([5]; 10 nM to 10 μM, result in words): remarkable antimalarial activity
antimalarial activity of L6 together with added metal ion ([5]; L6 about 40 nM with excess zinc ion (about 10 μM)): suppression of the antimalarial activity was found to some extent
IC50 ([5]; 3D7, 3D7 strain, values in text, read-out: IC50 value for the antimalarial activity based on the LDH assay): ~31 nM
IC50 ([5]; 3D7, read-out: IC50 antimalarial activity, 3D7): 84 nM
IC50 ([6]; DD2, read-out: IC50 antimalarial activity against the Dd2 strain): 80 to 160 nM
IC50 ([6]; DD2, read-out: IC50 antimalarial activity, Dd2): 144 nM
life-prolonging effect (number of surviving individuals) [7]: remarkable life-prolonging effect
antimalarial activity against a chloroquine-resistant strain [8]: exhibit antimalarial activity also against a chloroquine-resistant strain
IC50 at 48 h [9]: 5700 nM
IC50 at 48 h ([10]; HeLa, 48 hours, 1st measurement (Table 1), read-out: IC50 value, cytotoxicity): 5610 nM
IC50 at 48 h ([10]; HeLa, 48 hours, 2nd measurement (Table 1), read-out: IC50 value, cytotoxicity): 5160 nM
IC50 at 48 h ([10]; Table 3, 48 hours, WST-8, read-out: IC50 cytotoxicity, HeLa): 5800 nM
IC50 at 48 h [11]: 1800 nM
IC50 at 48 h ([12]; 1st measurement): 1880 nM
IC50 at 48 h ([12]; 2nd measurement): 1900 nM
IC50 ([13]; read-out: IC50 antimalarial activity against the K1 strain): 80 to 160 nM
IC50 ([13]; read-out: IC50 antimalarial activity, K1): 82 nM
IC50 at 48 h ([14]; 1st measurement): 2420 nM
IC50 at 48 h ([14]; 2nd measurement): 3870 nM
rate of malaria-infected erythrocytes (infection rate) [15]: infection rate could be remarkably suppressed
IC50 at 48 h [16]: 6000 nM
